Columns and labels:
[1] = target: T1, voltage-dependent anion channel (VDAC)-1 (Homo sapiens, UniProt P21796); assay: Identification of Compound (5)-binding protein: elution from Compound A-immobilized latex particles, SDS-PAGE, TOF-MS, immunoblotting; conditions: SK-N-SH nuclear fraction protein; elution with 300 μM Compound (5), 4° C., 1.5 hours; silver staining
T1 construct: protein was extracted from the nuclear fraction of human neuroblastoma SK-N-SH (ATCC); endogenous in cells; host or cells: SK-N-SH human neuroblastoma cells (ATCC)
Method: (§1) After 5 mg of carboxyl group-type latex particles obtained in Reference Example 1 was dispersed in dioxane, 23 mg of N-hydroxysuccinimide and 38 mg of water-soluble carbodiimide were added, and they were reacted at room temperature (about 20 to 25° C., the same applies below) for 2 hours. After the obtained succinimide-immobilized particles were washed with methanol, they were reacted with 4 mM Compound A (amino derivative of Compound (5)) in 0.5 mL of 0.2M sodium acetate buffer solution (pH 5.3) at room temperature for 1 hour to thereby immobilize Compound A onto the particles. To the obtained particles, 1M aqueous solution of ethanolamine-hydrochloric acid (pH 8.5) was added, and they were reacted at room temperature or 2 hours to thereby block unreacted groups in the succinimide-immobilized particles, after which the particles were washed with 50% methanol and water to give Compound A-immobilized particles. The Compound A-immobilized particles were dispersed in water to obtain a concentration of 10 mg/mL and stored under refrigeration. […]
(§2) Subsequently, centrifugation (15, 000×g, 5 minutes) was carried out, the supernatant was removed, and the obtained particles were washed with 0.05TGEMN buffer. […] After centrifugation (15, 000×g, 5 minutes), the protein-containing supernatant was analyzed by SDS-PAGE. […]

[2] = target: T2, VDAC-3 (Homo sapiens, UniProt Q9Y277); assay: Identification of Compound (5)-binding protein: elution from Compound A-immobilized latex particles, SDS-PAGE, TOF-MS; conditions: SK-N-SH nuclear fraction protein; elution with 300 μM Compound (5), 4° C., 1.5 hours; silver staining
T2 construct: protein was extracted from the nuclear fraction of human neuroblastoma SK-N-SH (ATCC); endogenous in cells; host or cells: SK-N-SH human neuroblastoma cells (ATCC)
T2 sequence (Q9Y277 1-283): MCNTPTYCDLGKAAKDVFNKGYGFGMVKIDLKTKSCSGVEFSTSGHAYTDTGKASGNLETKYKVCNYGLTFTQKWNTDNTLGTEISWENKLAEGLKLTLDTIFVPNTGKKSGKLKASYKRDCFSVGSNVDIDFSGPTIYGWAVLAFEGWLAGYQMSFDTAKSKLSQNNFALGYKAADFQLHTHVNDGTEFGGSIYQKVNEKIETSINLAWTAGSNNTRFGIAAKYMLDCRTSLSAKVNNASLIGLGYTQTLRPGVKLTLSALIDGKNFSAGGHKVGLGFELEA
Method: as §1, §2

[3] = tested on: PC12 cells; assay: Cytochrome c leakage suppressing action (cytochrome c ELISA of cytoplasmic protein); format: cell-based; conditions: DMEM with 0.5% FCS, 0.3 μmol/L Compound (5), 16 hours, 0.5% FCS group without compound 19.4
Method: The effect of Compound (5) on VDAC function was evaluated by determining the amount of cytochrome c leakage in the cytoplasm of PC12 cells.
PC12 cells, pre-cultured in a DMEM (Dulbecco's Modified Eagle's Medium) containing 10% FCS (Fetal Calf Serum), were sown to a culture dish of 10 cm diameter (Falcon) and cultured until they became nearly confluent. After the culture dish was washed with DMEM, a DMEM containing 0.5% FCS (0.5% FCS group) or a DMEM containing 0.5% FCS and 0.3 μmol/L Compound (5) (0.5% FCS+Compound (5) group) was added, and the cells were further cultured for 16 hours. The cells suspended in the culture broth and the cells adhering to the culture dish, detached by trypsin-EDTA treatment, were recovered. The recovered cells, after being washed with PBS, were ice-cooled in a digitonin solution [10 mmol/L HEPES, 0.3 mol/L mannitol, 0.1% (w/v) BSA, 100 μmol/L digitonin] (100 μL) for 5 minutes to extract cytoplasmic protein. After the obtained cytoplasmic protein was centrifuged at 8500×g for 5 minutes, 12 μL of the supernatant was analyzed using an assay kit [cytochrome c ELISA kit (MBL) and […] (Pierce), respectively] to determine its cytochrome c content and protein content. Subsequently, the cytochrome c content per unit amount of total protein was calculated, and this was taken as the amount of cytochrome c leakage (ng/mg). The results are shown in [Table 1].

[4] = tested on: PC12 cells; assay: Apoptosis-suppressing action: nucleosome content (Cell Death Detection ELISA), low serum-induced apoptosis; format: cell-based; conditions: DMEM with 0.5% FCS, 0.3 μmol/L Compound (5), 24 hours, 10% FCS group = 100%, 0.5% FCS group 422
Method: The apoptosis-suppressing action of Compound (5) was evaluated by determining the nucleosome content in PC12 cells.
PC12 cells, pre-cultured in a DMEM containing 10% FCS, were sown to a 24-well culture plate to obtain a concentration of 6×10^4 cells/well, and cultured for 24 hours. After the culture plate was washed with DMEM, a DMEM containing 0.5% FCS (0.5% FCS group) or a DMEM containing 0.5% FCS and 0.3 μmol/L Compound (5) (0.5% FCS+Compound (5) group) was added, and the cells were further cultured for 24 hours. Also, as a control group, the same procedures were carried out using a DMEM containing 10% FCS (10% FCS group). The cells suspended in the culture broth and the cells adhering to the culture plate, detached by trypsin-EDTA treatment, were recovered. According to the protocol of an apoptosis assay kit with nucleosome detection as an index (Cell Death Detection ELISA, Roche), the recovered cells were suspended in 500 μL of the cytolytic solution attached to said assay kit. After the suspension was ice-cooled for 30 minutes, it was centrifuged at 15, 000 rpm for 10 minutes and 400 μL of the supernatant was recovered. Said supernatant was diluted 2 fold and subjected to ELISA to determine its nucleosome content. Subsequently, taking the nucleosome content in the 10% FCS group as 100%, percentage in each group was calculated. The results are shown in [Table 2].

[5] = tested on: PC12 cells; assay: Mitochondria respiration activity-increasing action using Alamar Blue; format: cell-based; conditions: FCS-free DMEM, 3 μmol/L, 3 hours, B-27 addition group = 100%, non-addition group 73.2%±1.9%, mean±standard deviation, n=7
Method: The mitochondria respiration activity-increasing action of Compound (5) was evaluated using Alamar Blue.
(§3) After PC12 cells, pre-cultured in a DMEM containing 10% fetal calf serum (FCS), were suspended in the same medium to obtain a concentration of 2×10^5 cells/mL, the obtained suspension was sown to a 96-well culture plate to obtain a concentration of 0.1 mL/well and cultured for 24 hours. After said culture plate was washed with DMEM, a solution obtained by diluting Compound (5) in FCS-free DMEM to obtain a concentration of 3 μmol/L was added, and cultivation was carried out for 3 hours [Compound (5) addition group]. […]
(§4) Subsequently, to each well of the culture plate, 10 μL of Alamar Blue solution (Alamar Biosciences), which is a mitochondria respiration activity indicator, was added; fluorescence just after the addition and after the plate was allowed to stand in a 5% CO2 incubator at 37° C. for 10 minutes was determined using a Fluoroscan (Flow Laboratories) [excitation wavelength (Ex.): 538 nm, emission wavelength (Em.): 590 nm], and its variation was obtained.
Furthermore, taking the fluorescence variation in the B-27 addition group as 100%, relative values of fluorescence variation in the Compound (5) addition group and the Compound (5) non-addition group were calculated.

[6] = tested on: PC12 cells; assay: Mitochondria membrane potential-stabilizing action using Rodamin 123; format: cell-based; conditions: FCS-free DMEM, 3 μmol/L, 4 hours, FCS addition group = 100%, non-addition group 131.2±12.9%, mean±standard deviation, n=8
Method: The mitochondria membrane potential-stabilizing action of Compound (5) was evaluated using Rodamin 123 (trade name, Molecular Probe).
as §3, with “said culture-plate” for “said culture plate”, “for 4” for “for 3”
as §4, with “Rodamin 123 (trade name, Molecular Probe),” for “10 μL of Alamar Blue solution (Alamar Biosciences),”, “membrane potential” for “respiration activity”, “added to obtain a concentration of 1 μmol/L;” for “added;”, “485” for “538”, “538” for “590”
Furthermore, taking the fluorescence variation in the FCS addition group as 100%, relative values of fluorescence variation in the Compound (5) addition group and the Compound (5) non-addition group were calculated.

T1 sequence (P21796 whole entry): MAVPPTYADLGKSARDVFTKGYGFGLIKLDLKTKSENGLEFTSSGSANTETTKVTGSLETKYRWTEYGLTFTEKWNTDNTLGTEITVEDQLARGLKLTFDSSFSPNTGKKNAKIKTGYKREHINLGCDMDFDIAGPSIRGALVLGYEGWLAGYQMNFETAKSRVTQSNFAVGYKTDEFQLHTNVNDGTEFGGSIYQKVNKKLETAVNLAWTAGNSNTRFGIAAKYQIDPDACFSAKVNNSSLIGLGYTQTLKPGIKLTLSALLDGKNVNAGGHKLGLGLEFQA

Q: How did the “about 32 kDa protein band (VDAC-1) eluted from Compound A-immobilized particles” value [1] turn out when `Cc1ccccc1OCCCc1oc(-n2ccnc2C)nc1-c1ccc(Cl)cc1` [Compound (5), 4-(4-chlorophenyl)-2-(2-methyl-1-imidazolyl)-5-[3-(2-methylphenoxy)propyl]oxazole] was run?
A: eluted selectively

Q: And the “about 30 kDa protein band (VDAC-3) eluted from Compound A-immobilized particles” value [2]?
A: eluted selectively

Q: And the “Amount of cytochrome c leakage” value [3]?
A: 7.0 ng/mg

Q: What about the Nucleosome content [4] of the same molecule?
A: 176%

Q: What about the “fluorescence variation (Alamar Blue), relative value” [5] of the same molecule?
A: 126.7%±15.7%

Q: What about the “fluorescence variation (Rodamin 123), relative value” [6] of the same molecule?
A: 110.0%±8.0%

Source: patent publication US7462635B2, “Thiazole and oxazole VDAC regulator” (Takeda Pharmaceutical Company Limited, priority 2002, dated 2008)
